Reference: US4803223A (priority 1985, dated 1989)
Where two headings read alike, the source gives them in different places.

Key:
[1] = test system: P388 leukemia; set-up: species or system CDF1-strain mice (male); details: mouse, in vivo
[2] = test system: Ehrlich ascites carcinoma; assay: animal or person; type: in vivo, mice (CD2F1-strain Swiss, female); details: Mus musculus, ip, 1440 h, read-out: T/C (%)
[3] = test system: Walker carcinosarcoma 256; set-up: species or system Sprague-Dawley rats (male); details: rat, in vivo

O=C(NCCF)Nc1ccc(N(CCF)CCF)cc1 [Compound 8]
T/C (%) ([1]; 25 mg/kg): 134%

CCN(CCCl)c1ccc(NC(=O)NCCCl)cc1 [Compound 10]
response vs control in vivo at 100 mg/kg [2]: 222%

CCCN(CCCl)c1cccc(NC(=O)NCCBr)c1 [Compound 11]
response vs control in vivo at 100 mg/kg [2]: 203%

CN(CCBr)c1ccc(NC(=O)NCCBr)cc1 [Compound 12]
T/C (%) ([3]; 50 mg/kg): 329%

CC(C)N(CCBr)c1ccc(NC(=O)NCCCl)cc1 [Compound 13]
T/C (%) ([1]; 100 mg/kg): 134%

CCCCCCN(CCCl)c1ccc(NC(=O)NCCF)cc1 [Compound 14]
response vs control in vivo at 50 mg/kg [2]: 275%

CN(CCI)c1cccc(NC(=O)NCCI)c1 [Compound 15]
T/C (%) ([3]; 150 mg/kg): 220%

C=CCN(CCCl)c1ccc(NC(=O)NCCCl)cc1 [Compound 16]
response vs control in vivo at 150 mg/kg [2]: 235%

C#CN(CCCl)c1ccc(NC(=O)NCCBr)cc1 [Compound 17]
response vs control in vivo at 100 mg/kg [2]: 294%

O=C(NCCCl)Nc1ccc(N(CCl)CCCl)cc1 [Compound 18]
T/C (%) ([1]; 25 mg/kg): 154%

O=C(NCCCl)Nc1ccc(N(CCBr)CCCBr)cc1 [Compound 19]
T/C (%) ([3]; 50 mg/kg): 329%

COCCN(CCCl)c1ccc(NC(=O)NCCCl)cc1 [Compound 20]
response vs control in vivo at 50 mg/kg [2]: 281%

CCSCCN(CCCl)c1ccc(NC(=O)NCCBr)cc1 [Compound 21]
T/C (%) ([3]; 100 mg/kg): 207%

N#CCCN(CCCl)c1ccc(NC(=O)NCCI)cc1 [Compound 22]
T/C (%) ([3]; 50 mg/kg): 256%

O=C(NCCF)Nc1ccc(N(CCCl)CCOc2ccccc2)cc1 [Compound 23]
T/C (%) ([1]; 50 mg/kg): 156%

CC=CCN(CCCl)c1cccc(NC(=O)NCCCl)c1 [Compound 24]
response vs control in vivo at 150 mg/kg [2]: 234%

C=CCCCN(CCCl)c1ccc(NC(=O)NCCCl)cc1 [Compound 25]
response vs control in vivo at 100 mg/kg [2]: 178%

CC(C)C=CCN(CCCl)c1ccc(NC(=O)NCCBr)cc1 [Compound 26]
T/C (%) ([3]; 200 mg/kg): 216%

O=C(NCCCl)Nc1cccc(N(CC=CCCl)CCCl)c1 [Compound 27]
response vs control in vivo at 50 mg/kg [2]: 246%

C=CCC(CBr)N(CCBr)c1ccc(NC(=O)NCCBr)cc1 (stereo not shown) [Compound 28]
T/C (%) ([3]; 25 mg/kg): 182%

C=CC(C#N)N(CCCl)c1ccc(NC(=O)NCCCl)cc1 (stereo not shown) [Compound 29]
T/C (%) ([1]; 25 mg/kg): 187%

CCCOC=CN(CCI)c1ccccc1NC(=O)NCCBr [Compound 30]
response vs control in vivo at 200 mg/kg [2]: 205%

CSC=CCN(CCCl)c1ccc(NC(=O)NCCCl)cc1 [Compound 31]
response vs control in vivo at 150 mg/kg [2]: 184%

O=C(NCCCl)Nc1ccc(N(CCF)CCC=CCOc2ccccc2)cc1 [Compound 32]
T/C (%) ([1]; 50 mg/kg): 150%

C#CCN(CCCl)c1cccc(NC(=O)NCCCl)c1 [Compound 33]
T/C (%) ([3]; 200 mg/kg): 169%

C#CC(C)N(CCI)c1ccc(NC(=O)NCCF)cc1 (stereo not shown) [Compound 34]
response vs control in vivo at 150 mg/kg [2]: 199%

CC#CCCN(CCBr)c1ccc(NC(=O)NCCCl)cc1 [Compound 35]
response vs control in vivo at 150 mg/kg [2]: 191%

C#CCCCCN(CCCl)c1ccc(NC(=O)NCCCl)cc1 [Compound 36]
response vs control in vivo at 100 mg/kg [2]: 186%
